Patent US20250115595A1, “INHIBITORS OF HYPOXIA-INDUCIBLE FACTORS” (The Johns Hopkins University, priority 2021, published 2025)

How the values were obtained:
[1] = system: Hep3B human HCC tumor xenografts; assay: Hep3B tumor xenograft in nude mice; type: in vivo, mouse
Method: Effects of 32-134D on Hep3B human HCC tumor xenografts. To analyze the effect of HIF inhibitor 32-134D on tumor xenograft growth, Hep3B cells were injected subcutaneously into immunodeficient mice and when tumors reached a volume of 150 mm3 (designated treatment day 1), the mice were treated with vehicle or 32-134D by daily intraperitoneal injection. […] Treatment with 32-134D for 17 days had no effect on mouse body weight (FIG. 6C), appearance or behavior. We treated additional mice with 32-134D and confirmed inhibition of tumor growth without effects on body weight (FIGS. 7A-C).
Protocols were approved by the Johns Hopkins University Animal Care and Use Committee and used in accordance with the NIH Guide for the Care and Use of Laboratory Animals (National Research Council, 2011). Female nude mice (NCI Athymic NCr-nu/nu) and male C57L/J mice were purchased from Charles River and The Jackson Laboratory, respectively. Hep3B (8×106) and Hepa1-6 (1×107) cells were implanted subcutaneously in 6- to 8-week-old mice, and tumor volume was calculated: V=abc×0.52. For Hep3B tumor studies, once tumors reached 100-150 mm3, mice were randomized into groups to receive daily intraperitoneal injection of either vehicle or 32-134D. For Hepa1-6 tumors, mice were randomized to receive treatment once tumors reached a size of 50-100 mm3. Tumors were harvested 4 hours after the last treatment.
Tumors were fixed in 10% formalin in phosphate buffer for 24 hours and placed in PBS the following day for paraffin embedding and sectioning. Anti-CD31 immunohistochemical staining, hematoxylin and eosin counterstaining, and whole slide scanning were performed by NDB Bio […].
(§1) Human (EPO, SCF, SDF1a, VEGFA) and mouse (Cxcl1, Cxcl2, Cxcl9, Cxcl10, Il6, Il10, IL22, Vegfa) protein concentrations in tumor homogenates were determined using ELISA kits (Table 4) from Novus Biologicals. Optical density was obtained at 450 nm (corrected for readings at 570 nm) using the VICTOR Nivo plate reader (PerkinElmer). Sample protein concentration was calculated by linear regression from a standard curve.

[2] = system: intratumoral gene expression; assay: RT-qPCR and ELISA of Hepa1-6 tumor tissue; type: in vivo, mouse
Method: RNA was extracted using TRIzol Reagent (ThermoFisher). Quantitative Real-time PCR was conducted using SYBR Green PCR Master Mix (BioRad) and reactions were run using the BioRad thermal cycler (BioRad). The mRNA expression of target genes was normalized to the expression of 18S rRNA and the fold change (FC) was calculated based on the threshold cycle (Ct) as
as §1

[3] = system: HIF-regulated angiogenic genes; assay: mRNA expression in hypoxic HUVECs; type: cell-based, human; conditions: 1 or 10 μM, 4 hours
Text: Vascular endothelial cells also secrete angiogenic mediators that contribute to the progression of diabetic eye disease (Y. Qin et al., Sci Adv 8, eabm1896 (2022)). Exposure of human umbilical vein endothelial cells (HUVECs) to hypoxia induced HIF-1α and HIF-2α protein accumulation, which was inhibited by 32-134D (FIG. 30). […] Of note, ANGPT2 and VE-PTP, two emerging targets for the treatment of diabetic eye disease, are both expressed specifically by vascular cells (G. Fachinger, et al., Oncogene 18, 5948-5953 (1999); P. C. Maisonpierre et al., Science 277, 55-60 (1997)).
Reverse transcription and quantitative real-time PCR: Total RNA was isolated from cultured cells or retinas with PureLink™ RNA Mini Kit (Invitrogen #12183025), and cDNA was prepared with MuLV Reverse Transcriptase (Applied Biosystems). Quantitative real-time PCR was performed with Power SYBR Green PCR Master Mix (Applied Biosystems) and MyiQ Real-Time PCR Detection System (Bio-Rad). Normalization was done using cyclophilin A for mouse tissue and human cell lines.

What does the source list for `Brc1ccc2c(-c3csc(-c4c[nH]c5c(Br)cccc45)n3)c[nH]c2c1` [Compound 32-134D, 4-(6-bromo-1H-indol-3-yl)-2-(7-bromo-1H-indol-3-yl)thiazole]?
tumor xenograft growth ([1]; 20 mg/kg daily intraperitoneal): Partial growth inhibition; tumor xenograft growth ([1]; 40 mg/kg daily intraperitoneal): maximal growth inhibition; mass of tumors harvested ([1]; 40 mg/kg/day): significantly decreased; tumor xenograft growth ([1]; 80 mg/kg daily intraperitoneal): maximal growth inhibition; blood vessel area in tumors (CD31 immunohistochemistry) ([1]; mouse, in vivo): markedly decreased; mouse body weight ([1]; treatment for 17 days): no effect; tumor mRNAs encoding SCF, PGF, EPO, CD73, PDL1, VEGFA, SDF1 ([1]; tumor RNA, RT-qPCR): significant decrease; EPO, SCF, SDF1 and VEGFA protein in tumors ([1]; whole tumor lysates, ELISA): significantly decreased expression; tumor mRNAs encoding angiogenic factors and proteins mediating immunosuppression ([2]; Angpt14, Epo, Pgf, Vegfa, B7h4, Cd47, Cd70, Cd73, Glut1, Ldha, Pdl1, Tim3, RT-qPCR): significantly decreased; Cxcl1, Il10 and Vegfa protein levels in tumors ([2]; ELISA on tumor lysates): significantly decreased levels; Cxcl9 and Cxcl10 protein levels in tumors ([2]; ELISA on tumor lysates): significantly increased levels; tumor expression of Cxcl9 and Cxcl10 mRNA ([2]; RT-qPCR): increased; Cxcl1, Il6 and Il10 mRNA levels in tumor tissue ([2]; mouse, in vivo): decreased; IL22 mRNA and protein expression in Hepa1-6 tumors ([2]; mouse, in vivo): inhibited; hypoxia-increased ANGPT2 and VEPTP mRNA expression [3]: inhibited; hypoxia-induced VEGF and ANGPTL4 mRNA expression [3]: effectively inhibited
